Target: T1, ADRA1D (Homo sapiens, UniProt P25100)
T1 construct: purchased Promega (in-house HiBiT-GPCR construct library, NanoBRET)
T1 sequence (P25100 1-572): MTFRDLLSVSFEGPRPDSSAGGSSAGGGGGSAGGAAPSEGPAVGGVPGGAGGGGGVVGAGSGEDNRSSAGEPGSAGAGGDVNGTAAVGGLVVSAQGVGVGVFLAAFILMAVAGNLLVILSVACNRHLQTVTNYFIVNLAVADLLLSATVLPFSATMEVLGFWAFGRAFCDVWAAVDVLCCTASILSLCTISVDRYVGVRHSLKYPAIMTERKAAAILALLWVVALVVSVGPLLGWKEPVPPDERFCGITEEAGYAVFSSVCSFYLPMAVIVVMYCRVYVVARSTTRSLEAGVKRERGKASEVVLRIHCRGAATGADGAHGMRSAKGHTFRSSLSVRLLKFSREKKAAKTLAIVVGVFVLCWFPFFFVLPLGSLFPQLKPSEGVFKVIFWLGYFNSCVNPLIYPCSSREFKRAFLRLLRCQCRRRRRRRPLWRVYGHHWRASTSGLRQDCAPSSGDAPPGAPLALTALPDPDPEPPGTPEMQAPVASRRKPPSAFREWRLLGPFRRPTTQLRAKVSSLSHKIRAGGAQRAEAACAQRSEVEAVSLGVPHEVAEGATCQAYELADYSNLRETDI
Assay: NanoBRET screen HiBiT-ADRA1D in HEK293
Format: binding
Protocol: Each tracer candidate was screened across the entire library of HiBiT-GPCR constructs using NanoBRET as the detection modality. As depicted in Figure 4A, the specificity of interactions was evaluated through decrease in BRET due to competitive displacement of a bound tracer by excess parental compound. Each tracer was analyzed for binding to each HiBiT-GPCR fusion in the absence and in the presence of competing parental compound. Briefly, HEK293 cells were transfected with HiBiT-GPCR constructs diluted into promoterless DNA to reduce expression and maximize translocation to the cell surface. Each tracer candidate was then screened at concentrations of 1 μM and 0.1 μM across cells expressing these fusions. Cells were treated for 1.5 h with tracer either alone or in the presence of 20 μM competing parental compound (i.e., control). BRET was measured upon addition of purified LgBiT and subsequent complementation with HiBiT genetically fused to a GPCR. The specificity of interactions was assessed through a decrease in BRET signal due to competitive displacement of the bound tracer. To further gauge the robustness of these interactions, the fold response over the control (i.e., BRETtracer/BRETcontrol) was calculated. We chose a 1.5-fold response, which translates to ≥7-fold signal over noise as the minimal threshold required to score an interaction as positive.
HiBiT-GPCR DNA constructs were diluted in 10 mM Tris pH 8 to a final concentration of 0.01 μg/μL, arrayed in 96-well plates and stored at −20 °C. For transfection, HEK293 cells were suspended in Opti-MEM (without phenol red) supplemented with 2% fetal bovine serum (Seradigm) and 100 units/mL penicillin–streptomycin (Gibco) at a final concentration of 220,000 cells/mL and dispensed into white 96-well plates at 90 μL/well. Subsequent transfections and screens were carried using an Agilent Bravo Automated Liquid Handling Platform. First, the 96-well HiBiT DNA arrays were diluted 25-fold in Opti-MEM (without serum or phenol red) to a final concentration of 0.0004 μg/μL and 20 μL of the diluted DNAs were transferred into new 96-well plates. Next, promoterless carrier DNA (1 μg/μL) was diluted 25-fold (0.04 μg/μL) and then dispensed into the diluted arrays at 20 μL/well. Following brief mixing, Viafect transfection reagent (Promega) diluted 16-fold into Opti-MEM was dispensed into the plates at 40 μL/well. After mixing by pipetting, plates were incubated for 10 min on the pipetting station deck. The DNA-transfection reagent complexes were then added to plates containing cells. To facilitate the screen, 10 μL of DNA-transfection reagent complexes were added in duplicates to the top 4 and bottom 4 rows, resulting in two identical 48-well arrays per plate. Plates with transfected cells were incubated for 18–20 h at 37 °C/5% CO2. A screen of each tracer across the entire library using two different concentrations requires duplicate plates of transfected cells. Depending on the number of tracers being screened, transfections can be scaled up using the same ratios. The next day, for each tracer, four 20× screening solutions in tracer dilution buffer (Promega) were prepared: two duplicates at final concentration of 20 μM and two duplicates at a final concentration of 2 μM. […] The four resulting solutions were diluted 4-fold in Opti-MEM without serum or phenol red to generate 5× solutions (5 µM and 0.5 µM tracer +/− 100 μM competing compound). To screen the library, a BioTek MultiFlo FX liquid dispenser was used to dispense 22.5 µL of tracer solution to the top 4 rows and 22.5 µL tracer + competing compound solution to the 4 bottom rows. Plates were briefly mixed on an orbital shaker and incubated for 1.5 h at room temperature. […] Plates were briefly mixed on an orbital shaker and incubated for 15 min to allow complementation.

| SMILES | NanoBRET Fold Response (ADRA1D, tracer 0.1μM) | NanoBRET Fold Response (ADRA1D, tracer 1μM) | other results |
| --- | --- | --- | --- |
| O=C(CCc1ccc2n1[B-](F)(F)[N+]1=C(c3ccc[nH]3)C=CC1=C2)NCc1ccc(C(=O)NCCOCCC(=O)N[C@@H]2CC[C@@]3(O)[C@H]4Cc5ccc(O)c6c5[C@@]3(CCN4CC3CC3)[C@H]2O6)cc1 [Naltrexone-3-NB590] | 1.36 | 1.31 |  |
| CCCn1c(=O)c2[nH]c(-c3ccc(OCC(=O)NCCNC(=O)CCOCCNC(=O)c4ccc(CNC(=O)CCc5ccc6n5[B-](F)(F)[N+]5=C(c7ccc[nH]7)C=CC5=C6)cc4)cc3)nc2n(CCC)c1=O [XAC-3-NB590] | 1.02 | 1.10 |  |
| CC(C)N(CC[C@H](c1ccccc1)c1cc(CCNC(=O)c2ccc(CNC(=O)CCc3ccc4n3[B-](F)(F)[N+]3=C(c5ccc[nH]5)C=CC3=C4)cc2)ccc1O)C(C)C [Tolterodine-BZ-NB590] | 1.15 | 1.05 |  |
| COc1ccc2[nH]c(-c3ccc(CNC(=O)CCOCCOCCOCCOCCNC(=O)CCc4ccc5n4[B-](F)(F)[N+]4=C(c6ccc[nH]6)C=CC4=C5)cc3)c(CCNC(C)=O)c2n1 [AzomelatoninICO9-2-NB590] |  |  | NanoBRET Fold Response (0.1μM tracer): 0.81; NanoBRET Fold Response (1μM tracer): 0.96 |
| COc1ccccc1N1CCN(CCCCN2C(=O)c3ccc(CNC(=O)CCOCCNC(=O)c4ccc(CNC(=O)CCc5ccc6n5[B-](F)(F)[N+]5=C(c7ccc[nH]7)C=CC5=C6)cc4)cc3C2=O)CC1 [NAN-190-3-NB590] |  | 1.16 |  |
| Cc1nc2n(c(=O)c1CCN1CCC(c3noc4cc(F)ccc34)CC1)CCCC2OC(=O)NCCOCCOCCOCCOCCNC(=O)CCc1ccc2n1[B-](F)(F)[N+]1=C(c3ccc[nH]3)C=CC1=C2 (stereo not shown) [Risperidone-2-NB590] | 1.27 | 1.16 |  |
| O=C(CCOCCOCCOCCOCCNC(=O)CCc1ccc2n1[B-](F)(F)[N+]1=C(c3ccc[nH]3)C=CC1=C2)NCCCN1CCN(C2=Nc3ccccc3Oc3ccc(Cl)cc32)CC1 [Loxapine-a-2-NB590] | 1.07 | 1.24 |  |
| COc1ccccc1N1CCN(CCCCN2C(=O)c3ccc(CNC(=O)CCOCCOCCOCCOCCNC(=O)CCc4ccc5n4[B-](F)(F)[N+]4=C(c6ccc[nH]6)C=CC4=C5)cc3C2=O)CC1 [NAN-190-2-NB590] | 1.10 | 1.13 |  |
| CC(C)N(CC[C@H](c1ccccc1)c1cc(CCNC(=O)CCOCCOCCOCCOCCNC(=O)CCc2ccc3n2[B-](F)(F)[N+]2=C(c4ccc[nH]4)C=CC2=C3)ccc1O)C(C)C [Tolterodine-2-NB590] | 0.95 | 1.00 |  |
| N#CN=C(NCCCOc1cccc(CN2CCCCC2)c1)NCCNC(=O)CCOCCOCCOCCOCCNC(=O)CCc1ccc2n1[B-](F)(F)[N+]1=C(c3ccc[nH]3)C=CC1=C2 [Aminopotentidine-2-NB590] | 0.97 |  |  |
| CCOC(=O)c1cc(C#N)c(N2CCC(C(=O)NS(=O)(=O)Cc3ccccc3/C=C/C(=O)NCCNC(=O)CCc3ccc4n3[B-](F)(F)[N+]3=C(c5ccc[nH]5)C=CC3=C4)CC2)nc1C [AZD1283-1-NB590] |  |  | NanoBRET Fold Response (ADRA1D, 0.1μM): 1.02; NanoBRET Fold Response (ADRA1D, 1μM): 1.06 |
| CN(C)CCC=C1c2ccccc2CCc2ccc(C(=O)NCCNC(=O)CCOCCOCCOCCOCCNC(=O)CCc3ccc4n3[B-](F)(F)[N+]3=C(c5ccc[nH]5)C=CC3=C4)cc21 [Amitriptyline-b-2-NB590] |  |  | NanoBRET Fold Response (tracer at 0.1μM, listed as amitriptyline-b-2-NB590): 1.05; NanoBRET Fold Response (tracer at 1μM, listed as amitriptyline-b-2-NB590): 1.07 |
| CN(C)CCC=C1c2ccccc2CCc2ccc(C(=O)NCCNC(=O)CCOCCOCCOCCOCCNC(=O)CCc3ccc4n3[B-](F)(F)[N+]3=C(c5ccc[nH]5)C=CC3=C4)cc21 [Amitriptyline-a-2-NB590] |  |  | NanoBRET Fold Response (tracer at 0.1μM): 1.08; NanoBRET Fold Response (tracer at 1μM): 1.11 |
| O=C(CCc1ccc2n1[B-](F)(F)[N+]1=C(c3ccc[nH]3)C=CC1=C2)NCCOCCOCCNC(=O)OCCOCCN1CCN(C2=Nc3ccccc3Sc3ccccc32)CC1 [Quetiapine-a-2-NB590] | 1.13 | 1.06 |  |
| Cc1cc2c(s1)Nc1ccccc1N=C2N1CCN(CCCNC(=O)CCOCCOCCOCCOCCNC(=O)CCc2ccc3n2[B-](F)(F)[N+]2=C(c4ccc[nH]4)C=CC2=C3)CC1 [Olanzapine-a-2-NB590] |  | 1.06 |  |
| COc1ccc2c(n1)c(CCNC(C)=O)cn2CCNC(=O)CCc1ccc2n1[B-](F)(F)[N+]1=C(c3ccc[nH]3)C=CC1=C2 [Azamelatonin-1-NB590] |  |  | NanoBRET Fold Response (0.1μM tracer): 1.04; NanoBRET Fold Response (1μM tracer): 0.92 |
| CN(CCC=C1c2ccccc2CCc2ccccc21)C(=O)CCOCCOCCOCCOCCNC(=O)CCc1ccc2n1[B-](F)(F)[N+]1=C(c3ccc[nH]3)C=CC1=C2 [Amitriptyline-e-2-NB590] |  |  | NanoBRET Fold Response (tracer at 1μM): 1.07 |
| O=C(CCc1ccc2n1[B-](F)(F)[N+]1=C(c3ccc[nH]3)C=CC1=C2)NCc1ccc(C(=O)NCCOCCOCCNCC(O)COc2cccc3ccccc23)cc1 (stereo not shown) [Propranolol-3-NB590] |  |  | NanoBRET Fold Response (ADRA1D, 0.1μM): 1.11; NanoBRET Fold Response (ADRA1D, 1μM): 1.09 |
| O=C(CCOCCOCCOCCOCCNC(=O)CCc1ccc2n1[B-](F)(F)[N+]1=C(c3ccc[nH]3)C=CC1=C2)NCCCN1CCN(C2=Nc3cc(Cl)ccc3Nc3ccccc32)CC1 [Clozapine-a-2-NB590] |  |  | NanoBRET Fold Response (ADRA1D, 0.1μM tracer): 1.21; NanoBRET Fold Response (ADRA1D, 1μM tracer): 1.08 |

— article PMC8151276, “An Integrated Approach toward NanoBRET Tracers for Analysis of GPCR Ligand Engagement” (Molecules, 2021)
